Source: patent US8367620B2, “Peptidic growth hormone secretagogues analog compounds and preparations thereof” (Centro de Ingenieria Genetica y Biotecnologia, priority 2006, dated 2013)
pIC50: −log10 of the molar value.

Tests used:
PC12 cells = format: cell-based; conditions: differentiated PC12 cells, 72 h incubation, MTT; read-out: IC50 during the NGF deprivation induced neuronal death
Experimental: PC12 cells were stored in 75 cm^2 culture flasks on DMEM containing 5% bovine foetal serum and 10% horse serum, with 50 μg/ml gentamicin. Cells were incubated at 37° C. in 5% CO2. To induce differentiation cells were transferred at a density of 1×10^4 to polylysine covered 96 well plates in NGF supplemented DMEM media for 7 days, with medium replacement every 2-3 days. After differentiation cells were incubated with peptidic GHS analog compounds, at different concentrations for 72 h. Cell survival and proliferation was determined using the Promega non-radioactive cytotoxicity proliferation assay, Cell Titer 96, based in the conversion of 3-(4,5-dimethylthiazole-2-yl)-2,5-diphenyltetrazolium bromide (MTT) in to a spectrophotometrically detectable product. After deprivation of NGF medium is removed and 15 μl of the DMEM dissolved dye is added, after 4 hours of 37° C. incubation 100 μl of the stopping solution is added and absorbance is measured at 570 nm

[1] = tested on: tilapia Oreochromis sp. larvae; experiment: Growth stimulation of tilapia larvae by immersion; format: in vivo; conditions: immersion 100 μg/L, one hour twice a week, three weeks
Experimental: (§1) Growth stimulation experiments on tilapia Oreochromis sp. larvae were performed evaluating groups of 100 larvae with 0.01 g average, using the peptidic GHS analogs, in a 100 μg/L concentration, twice a week using an immersion time of one hour.

IGF-I mRNA = IGF-I mRNA in liver and GH level of intraperitoneally injected tilapias; format: in vivo, tilapia; conditions: liver of intraperitoneally injected tilapias
Experimental: IGF-I mRNa was determined in the liver of intraperitoneally injected tilapias monitoring also the GH level time course, showing the peptidic GHS analog compounds as able to stimulate in fish the GH levels in the bloodstream and at incrementing the IGF-I mRNA levels after the injection of the compounds as shown in table 4.

Litopenaeus vanamei = experiment: Growing of shrimp larvae by dipping in solution of the compounds; format: in vivo; conditions: four dips of one hour every three days, 0.1 g/L
Experimental: Shrimp larvae were subjected two four dips, for one hour every three days with different peptidic GHS analogs at 0.1 g/L. The control group was subjected to the same frequency of dipping with 1 mg/L BSA.

lysozyme = experiment: Lysozyme levels in tilapia larvae treated by immersion; format: in vivo, Oreochromis sp.; conditions: immersion 100 μg/L
Experimental: as §1
During this experiment lysozyme levels were also monitored and an increase of this immunity marker was obtained in the treated animals as shown in table 8.

[2] = tested on: primary cultures of granular cerebellum cells; format: cell-based, Wistar rats; conditions: 500 μM hydrogen peroxide, rat cerebellum granular cells; read-out: IC50 during the induced neuronal damage by Hydrogen Peroxide addition to a primary culture of neurons
Experimental: Primary cultures of granular cerebellum cells were obtained from 7-9 days Wistar rats. After a rapid dissection, rat cerebellums were submerged in a cold solution and meningeal membranes were removed, each organ was transferred to a 2-3 ml fresh medium solution and finely sliced. Cells were dissociated using a Pasteur pipette and filtered through a nylon […] membrane (Falcon, Franklin Lakes, N.J.). The number of viable cells was determined by cell counting in a hematocytometer with tripan blue as a marker. Cells were cultured on polylysine covered 96 well plates at a density of 6250 cells in […] final volume. Cultures were kept at 37° C. in 5%. CO2 after 24 h, 10 μM of cytosine arabinofuranose (AraC; Sigma) was added to inhibit the proliferation of non-neuronal cells. The capacity of neural damage prevention was tested adding 500 μM hydrogen peroxide in different concentrations of peptidic GHS analog compounds, Cell survival was determined using the Promega non-radioactive cytotoxicity proliferation assay, Cell Titer 96 (Promega).

tilapias = experiment: Growth acceleration on juvenile tilapias treated intraperitoneally; format: in vivo; conditions: juvenile tilapia, ip 0.1 μg/g twice a week, three weeks
Experimental: The compounds were dissolved in a sodium phosphate (PBS) buffer solution and injected twice a week, during three weeks at 0.1 μg/g of humid fish weight (gbw). Compounds were applied individually to a group of 10 male tilapias with an average weight of 60.41±10.36 g and a control group with an average weight of 60.58±19.67 g was receiving PBS only as a control, measuring the average weight every week, all animals in the experiment were labelled with microchips (Stoelting Co. Wood Dale, USA.). for proper identification.

[3] = tested on: Litopenaeus vanamei post-larvae; experiment: Growth of shrimp post-larvae fed Artemia-bioencapsulated compounds; format: in vivo; conditions: Artemia bioencapsulated (10 mh/L, one hour), fed four times a day for one month
Experimental: The peptidic GHS analogs were bioencapsulated in Artemia to be fed to Litopenaeus vanamei post-larvae. For the encapsulation the compounds were added in a 10 mh/L left for an hour, harvested and washed. The animals were fed four times a day for one month while the control group was fed with BSA encapsulated Artemia The effect was measured with an optical micrometer and weighing the animals in a 0.1 mg precision scale.

[4] = tested on: Post-larvae of Litopenaeus vanamei; experiment: Growth stimulation in shrimps by dietary supplementation; format: in vivo; conditions: compound at 1% in post-larvae crustacean diet
Experimental: The peptidic GHS analogs were included at 1% in a post-larvae crustacean diet. Post-larvae of Litopenaeus vanamei were fed with the aforementioned diet in parallel with a control group with 1% BSA addition. The effect was measured with an optical micrometer and weighing the animals in a 0.1 mg precision scale.

Sequence	pIC50 (PC12 cells)	Weight Inc. (%), control group growing = 100% [1] [%]	Normalized IGF-I mRNA levels to a non related synthetic peptide control group (IGF-I mRNA)	Size Inc. (%), control group growing = 100% (Litopenaeus vanamei) [%]	Weight Inc. (%), control group growing = 100% (Litopenaeus vanamei) [%]	Lysozyme levels of the treated animals relative to the control group (lysozyme)	pIC50 [2]	Weight Inc. (%), control group growing = 100% (tilapias) [%]	Size Inc. (%), control group growing = 100% [3] [%]	Size Inc. (%), control group growing = 100% [4] [%]
ALDFKPNIP [Compound A225, L-amino acid peptide with internal side-chain cycle, SEC; ID NO: 5]	5.39	98.0	1.38	112.6	121.0	1.43	5.40	120.0	130.0	130.0
GDAGAKLLSSR [Compound A234]	5.23	120.6	1.17	114.2	123.6	2.77	5.43	110.6	135.0	138.6
GEGYKLDERSQ [Compound A236, L-amino acid peptide with internal side-chain cycle, SEC; ID NO: 16]	5.52	105.0	1.13	112.0	121.0	1.42	5.48	99.0	138.0	137.0
GGEAGKLCPPRY [Compound A237, L-amino acid peptide with internal side-chain cycle, SEC; ID NO: 17]	5.48	109.9	1.201	116.2	127.0	1.01	5.60	100.0	136.0	132.0
GGGKFWDIPHH [Compound A231, L-amino acid peptide with internal side-chain cycle, SEC; ID NO: 11]	5.40	151.0	1.39	123.0	130.0	1.89	5.46	150.2	140.2	140.1
GKFDSPEHQ [Compound A230]	5.39	150.0	1.48	123.6	150.0	1.33	5.42	158.0	140.0	140.0
GLEFKLLHQ [Compound A238, L-amino acid peptide with internal side-chain cycle, SEC; ID NO: 18]	5.69	112.6	1.24	117.9	129.2	1.33	6.00	129.4	140.0	130.1
GMEAGIKLCHRQ [Compound A235, L-amino acid peptide with internal side-chain cycle, SEC; ID NO: 15]	5.69	90.0	0.9	112.5	121.0	1.90	6.00	89.9	134.2	137.0
HAKPGGIDPEQ [Compound A229, L-amino acid peptide with internal side-chain cycle, SEC; ID NO: 9]	5.47	125.0	1.09	115.9	126.1	1.15	5.88	126.5	140.0	140.0
